According to ChEMBL document CHEMBL4257489, “Recent updates in the discovery and development of novel antimalarial drug candidates” (Medchemcomm, 2018):
One block for each molecule: values may come before it.

Experiments:
Plasmodium berghei [1] = experiment: Antimalarial activity against GFP-fused Plasmodium berghei ANKA infected in NMRI mouse assessed as mouse survival at 100 mg/kg, po administered at 4, 24, 48, 72 hrs post infection; format: functional
[2] = Oral bioavailability in C57BL/6 mouse at 100 mg/kg; format: ADME, organism-based; conditions: in vivo
Plasmodium berghei [3] = experiment: Antimalarial activity against GFP transfected Plasmodium berghei ANKA infected in NMRI mouse assessed as suppression of parasitemia at 100 mg/kg, po administered at 4, 24, 48, 72 hrs post infection measured at 96 hrs post infection by FACS analysis relative to control; format: functional
Plasmodium berghei [4] = experiment: Antimalarial activity against Plasmodium berghei infected in mouse by Thompson test; format: functional
[5] = Oral bioavailability in Sprague-Dawley rat at 10 mg/kg administered via gavage; format: ADME, organism-based; conditions: in vivo
Plasmodium berghei [6] = experiment: Antimalarial activity against Plasmodium berghei infected in mouse assessed as cure rate at 30 mg/kg, po relative to control; format: functional
Plasmodium berghei [7] = experiment: Antimalarial activity against Plasmodium berghei infected in po dosed mouse measured after 3 doses by 4 day peter's test; format: functional; conditions: 96 h
Plasmodium berghei [8] = experiment: Antimalarial activity against GFP transfected Plasmodium berghei in ICR mouse engrafted with parasite infected erythrocytes assessed as reduction in parasitemia administered as po qd for 3 to 5 days post infection measured on day 3 to 30 by Giemsa staining-based microscopic method; format: functional
Plasmodium falciparum = experiment: Antimalarial activity against Plasmodium falciparum 3D7 0087/N9 in NODscid IL-2Rgammanull mouse engrafted with parasite infected human erythrocytes assessed as reduction in parasitemia administered via oral gavage starting from day 3 to day 6 post infection measured every 24 hrs during compound dosing by flow cytometric method; format: functional; conditions: 3D7 0087/N9, po
[9] = Oral bioavailability in mouse at 15 mg/kg; format: ADME, organism-based; conditions: in vivo
[10] = Oral bioavailability in beagle dog at 3 mg/kg; format: ADME, organism-based, Canis lupus familiaris; conditions: in vivo
[11] = Oral bioavailability in beagle dog at 30 mg/kg; format: ADME, organism-based, Canis lupus familiaris; conditions: in vivo
[12] = Oral bioavailability in Sprague-Dawley rat at 17 +/- 0.2 mg/kg administered via gavage as suspension; format: ADME, organism-based; conditions: in vivo
[13] = Oral bioavailability in Sprague-Dawley rat at 20 +/- 0.2 mg/kg administered via gavage as solution; format: ADME, organism-based; conditions: in vivo
[14] = Half life in CD1 mouse at 2.5 mg/kg, iv; format: ADME, organism-based; conditions: in vivo
[15] = Oral bioavailability in CD1 mouse at 10 mg/kg; format: ADME, organism-based; conditions: in vivo
[16] = Oral bioavailability in rat; format: ADME, organism-based; conditions: in vivo
hERG = experiment: Selectivity index, ratio of IC50 for human ERG to IC50 for Plasmodium falciparum NF54; format: toxicity; conditions: read-out: Ratio IC50
[17] = tested on: acetylcholinesterase (AChE); experiment: Selectivity index, ratio of IC50 for human AchE to IC50 for Plasmodium falciparum NF54; format: toxicity; conditions: read-out: Ratio IC50

SMILES: COc1ccc2c(c1)CC[C@@H]1[C@@H]2CC[C@]2(C)[C@H](NCc3cc4ccccc4cc3O)CC[C@@H]12
Survival (Plasmodium berghei [1]): 27 days
bioavailability [2]: < 5%
Activity (Plasmodium berghei [3]): 99.8%

SMILES: COc1cc2[nH]c(C)c(-c3ccc(Oc4ccc(OC(F)(F)F)cc4)cc3)c(=O)c2cc1Cl
ED50 (Plasmodium berghei [4]): 0.016 mg/kg

bioavailability [5]: < 1%
SMILES: CC1(C)N=C(N)N=C(N)N1OCCCOc1cc(Cl)c(Cl)cc1Cl

SMILES: FC1CCN(CCOc2ccc(C3CCC4(CC3)OOC3(OO4)C4CC5CC(C4)CC3C5)cc2)CC1 (centres undefined)
Activity (Plasmodium berghei [6]): 66%
ED50 (Plasmodium berghei [7]): 4 mg/kg

bioavailability [9]: > 30%
bioavailability [10]: > 30%
bioavailability [11]: > 30%
bioavailability [12]: > 30%
bioavailability [13]: > 30%
SMILES: N#Cc1cc(NC(=O)[C@H]2c3ccccc3C(=O)N(CC(F)(F)F)[C@@H]2c2cccnc2)ccc1F [SJ-733]
ED50 (Plasmodium berghei [8]): < 5 mg/kg
ED50 (Plasmodium falciparum): < 5 mg/kg

SMILES: COc1ccc(NC(=O)N2CCCCN3[C@H](CN(C)C)[C@H](c4ccc(C#Cc5ccccc5)cc4)[C@@H]3C2)cc1
half-life [14]: 1920 min
bioavailability [15]: 80%

SMILES: Cc1nc(Nc2ncc(N3CCN(C)[C@H](C)C3)c(Nc3cc(C)n(C)n3)n2)cc(C2CC2)c1F [SUTIDIAZINE]
bioavailability [16]: 80%
selectivity ratio (hERG): > 1000
selectivity ratio [17]: > 1000
